≈ marks a conversion by molar mass, not a printed value.

What is called IC50 is the concentration needed to halve the response being measured. The thermodynamic solubility is the concentration in solution at equilibrium with solid. One may read the kinetic solubility as solubility judged after dilution from a stock solution rather than from solid.

In series [1] the target is trypanothione synthetase of L. infantum (LiTryS) (Leishmania infantum, UniProt A4I2Z3). The series is described as follows: TryS activity screening assay on recombinant LiTryS. The class given is biochemical. The note with it: for activity at 30 µM: read-out: LiTryS activity [% at 30 μM]; for IC50: recombinant TryS, errors 2 SD, read-out: LiTryS inhibition [IC50. In a few lines:
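N-His-tagged TryS from E. coli, purified by IMAC and SEC; end-point reaction with 150 μM ATP, 2 mM Spd, GSH 0.05 mM (TbTryS) or 0.25 mM (LiTryS), enzyme 3*10^−5 (TbTryS) or 2*10^−5 (LiTryS) μmol*min^-1*mL^-1. Stopped after 15 min with BIOMOL GREEN; A650 activity relative to blank-corrected DMSO control.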

A short description of series [2]: Thermodynamic aqueous solubility, shake-flask method and HPLC-UV. The note with it: phosphate-buffered saline, aqueous buffer, thermodynamic from solid, PBS pH 7.4, 25°C, up to 72 h, HPLC-UV, logS of molar solubility [M]. The class given is physicochemical. The method, then:
(§1) Phosphate-buffered saline pH 7.4 was prepared according to the European Pharmacopeia 10.4 by dissolving 2.38 g sodium monohydrogen phosphate dodecahydrate, 0.19 g potassium dihydrogen phosphate and 8.0 g sodium chloride in demineralised water (to a total volume of 1000 mL). The pH was adjusted to a value of 7.4 with hydrochloric acid. The buffer was filtered through a 0.45 μm membrane filter (Chromafil® Xtra PES-45/25) before use.
The thermodynamic aqueous solubility was determined by a miniaturised shake-flask method. […] A negative control with the buffer (400 μL) was incubated for every time point and measured likewise. After incubation for 24 h, 48 h and 72 h, the vials were checked for undissolved compound; then the filter plunger was punched into the vial for filtration. […] The calibration curve was obtained from at least three dilutions and five measuring points from a DMSO stock solution of the respective compound.

The subject of series [3] is trypanothione synthetase of T. b. brucei (TbTryS). Briefly: TryS activity screening assay on recombinant TbTryS. The class given is biochemical. The following applies: % activity at 30 μM compound, errors 2 SD. The method, then:
TryS from different trypanosomatids was produced in recombinant form with an N-terminal His-tag. The constructs pET-15b TbTryS and pET-28c(+)LiTryS were used to express TryS of T. b. brucei 427 (MITat1.4, GenBank accession protein id CAC87573.1), and L. infantum JPCM5 (GenBank accession protein id CAM69145.1). E. coli strain BL21 (DE3) served as the expression host. For TbTryS, the cells were cultured in a medium based in Terrific Broth and induction with isopropyl 1-thio-β-D-galactopyranoside (IPTG), while for LiTryS, the cells were cultured in ZYM-5052 auto-induction medium. For a detailed description of the expression, see Benítez et al.. The purification was performed by immobilised metal affinity chromatography in a HisTrap Fast Flow column (GE Healthcare) followed by size exclusion chromatography. […] The fractions containing recombinant TryS with ≥95% purity were pooled and concentrated to >10 mg protein/mL using a 10 kDa cut-off Amicon filter (Millipore, Billerica, CA). Glycerol was added at a final concentration of 40% (v/v). The samples were stored at -80°C. Enzyme purity and activity were assessed by SDS-PAGE (12%) under reducing conditions and by the end-point TryS assay (see TryS activity screening assay), respectively. Protein concentration was determined using the bicinchoninic acid assay with bovine serum albumin as standard. The protocols yielded 25–30 mg TbTryS or LiTryS per litre of culture medium and homogeneous specific activity.
For all TryS, ATP was used at 150 μM because of a high background signal at higher concentrations and Spd fixed at 2 mM, in agreement with the intracellular levels calculated from data reported in the literature for trypanosomatids. GSH was adjusted to 0.05 and 0.25 mM for TbTryS and LiTryS, respectively, to avoid substrate inhibition or to approach physiological concentrations. […] Microtiter plate wells were loaded with 5 μL of the test compound, DMSO (reaction control) or a TryS specific inhibitor (inhibition control) and 40 μL of MM solution. The reactions were then started by adding 5 μL of TryS (2 and 3*10^−5 μmol*min^-1*mL^-1 for LiTryS and TbTryS, respectively) and stopped after 15 min with 200 μL BIOMOL® GREEN reagent (Enzo Life Sciences). The compounds used as inhibition control were added at concentrations that inhibited 50% TryS activity: 30 μM and 150 nM MOL2008 for TbTryS and LiTryS, respectively. Blanks were prepared for each condition by adding 5 μL of screening reaction buffer instead of the enzyme. The TryS activity is calculated as follows: TrySactivity%=A650nmCi-A650nmCiB/A650nmE-A650nmEB*100%
A650 nm Ci is the mean absorbance at 650 nm for the reaction test with compound I (Ci), A650 nm CiB is the mean absorbance at 650 nm for the blank control with compound I (CiB), A650 nm E is the mean absorbance at 650 nm for the reaction control with DMSO (E) and A650 nm EB is the mean absorbance at 650 nm for the blank control with DMSO (EB). The errors were expressed as 2 standard deviations (SD), SD estimated as σ^n−1.

Series [4] in a line: Kinetic aqueous solubility by nephelometry. The note with it: phosphate-buffered saline, aqueous buffer, kinetic from dmso stock, PBS pH 7.4, 1% DMSO, 25°C, logS = decadic logarithm of molar solubility [M]. The class given is physicochemical. The method, then: as §1
The kinetic aqueous solubility was determined by nephelometry. The measurements were performed on the NEPHELOstar Plus, with accompanying software Omega 5.11 and MARS 3.20 (BMG LABTECH, Ortenberg, Germany). Generally, 2 dilution series of 1–2 weighed portions of each substance were measured. First, stock solutions of the compounds were prepared in DMSO. A series of dilutions in DMSO were prepared from one stock solution to obtain at least 3 concentrations below and 3 concentrations above the precipitation point in the measured series. The specific concentrations were usually measured as duplicates.
The 96-well plate (Corning UV transparent flat-bottom 96-well plate, Corning Incorporated, Kennenbunk, ME, USA) was inspected for contamination and scratches and measured without samples prior to the solubility measurement of the compounds. 198 μL of phosphate-buffered saline pH 7.4 was placed in a 96 well plate for each well to be measured. 2 μL of a DMSO solution was added and immediately mixed by moving the pipette plunger. This solution either contained no substance—and served as a blank for the measurement (3 wells)—or the respective DMSO dilution of the substance (2–4 wells). The concentration of the solvent DMSO in each measured solution was 1%. The concentration of the compound corresponds to a 1:100 dilution compared to the respective DMSO dilution. The well plate bottom was cleaned with a lint-free cloth and compressed air and inspected for impurities before measurement. After shaking at 500 rpm for 10 s (double orbital), the measurement was carried out in the nephelometer with the laser intensity set to 80% and beam focus of 2.5 mm at a temperature of 25°C.
The obtained measuring points, relative nephelometric units (RNU) per compound concentration, were used to model two straight lines: one straight line with constant low readings and slope → 0 characterises the concentration range where no precipitation has taken place yet; The other straight line has a steep slope and increase of the RNU per concentration and characterises the concentrations at which precipitation takes place in the respective sample vessels.
The evaluation was carried out by calculating the two straight lines and their point of intersection. Outliers and values in a saturation range for the kick-off curve (usually >800 kRNU) were not used to create the straight lines and are listed separately in the evaluation file. […] The x-value of the intersection of the two straight lines represents the kinetic solubility. The results of two dilution series are additionally indicated as range (in brackets). For measurements of 3 or more series, a mean value with standard deviation is provided. The logS value describes the decadic logarithm of the molar solubility: logS (molar solubility [M]).

trypanothione synthetase of L. infantum (LiTryS), sequence (A4I2Z3 entry or part of it): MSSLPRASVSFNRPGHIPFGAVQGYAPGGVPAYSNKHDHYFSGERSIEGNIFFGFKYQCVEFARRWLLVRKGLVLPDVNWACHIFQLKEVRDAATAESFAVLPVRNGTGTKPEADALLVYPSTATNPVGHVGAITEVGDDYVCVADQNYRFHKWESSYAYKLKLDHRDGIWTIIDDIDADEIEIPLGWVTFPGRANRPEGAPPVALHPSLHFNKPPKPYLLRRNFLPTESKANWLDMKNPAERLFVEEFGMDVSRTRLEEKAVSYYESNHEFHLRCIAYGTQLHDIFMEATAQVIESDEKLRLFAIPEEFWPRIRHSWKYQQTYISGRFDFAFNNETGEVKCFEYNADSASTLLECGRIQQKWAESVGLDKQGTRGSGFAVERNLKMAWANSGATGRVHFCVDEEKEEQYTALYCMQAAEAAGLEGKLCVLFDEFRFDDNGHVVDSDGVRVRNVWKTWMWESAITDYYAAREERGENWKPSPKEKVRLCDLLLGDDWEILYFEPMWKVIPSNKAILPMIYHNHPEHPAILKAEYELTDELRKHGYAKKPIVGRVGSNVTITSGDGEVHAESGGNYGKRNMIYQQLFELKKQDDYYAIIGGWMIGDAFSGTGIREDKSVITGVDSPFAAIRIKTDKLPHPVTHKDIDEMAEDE

Regarding `CNCCNC(=O)CN1C(=O)Cc2c([nH]c3ccc(C(F)(F)F)cc23)-c2ccc(Cl)cc21` [1h, 2-(3-Chloro-6-oxo-9-trifluoromethyl-7,12-dihydrobenzo[2,3]azepino[4,5-b]indol-5(6H)-yl)-N-[2-(methylamino)ethyl]acetamide], in series [1], the activity at 30 µM amounted to 0% and the IC50 amounted to 60 ± 40 nM. The same compound yielded a thermodynamic solubility at 72 h in series [2] of less than 2.95e-07 M. The “TbTryS activity [% at 30 μM]” value in series [3] was 87.8 ± 4.6%. In series [4], this compound showed a kinetic solubility at 10 s of 4.27e-05 M (≈ 19.8 µg/mL).

For `CNCCNC(=O)CN1C(=O)Cc2c([nH]c3ccc(Cl)cc23)-c2ccc(Cl)cc21` [1g, 2-(3,9-Dichloro-6-oxo-7,12-dihydrobenzo[2,3]azepino[4,5-b]indol-5(6H)-yl)-N-[2-(methylamino)ethyl]acetamide], in series [1], the activity at 30 µM amounted to 2.2% and the IC50 was 390 ± 60 nM. Moreover, the solubility (thermodynamic) at 72 h in series [2] is 1.29e-05 M (≈ 5.56 µg/mL). Moreover, the “TbTryS activity [% at 30 μM]” value in series [3] was 82.8 ± 5.9%. This compound gave a kinetic solubility at 10 s in series [4] of 4.79e-05 M (≈ 20.6 µg/mL).

Turning to `CNCCNC(=O)CN1C(=O)Cc2c([nH]c3ccc(I)cc23)-c2ccc(Cl)cc21` [1f, 2-(3-Chloro-9-iodo-6-oxo-7,12-dihydrobenzo[2,3]azepino[4,5-b]indol-5(6H)-yl)-N-[2-(methylamino)ethyl]acetamide], in series [1], the activity at 30 µM is 2.2 ± 0.6% and the IC50 is 70 ± 30 nM. In series [2], this compound gave a thermodynamic solubility at 72 h of 1.7e-06 M (≈ 0.888 µg/mL). Further, the “TbTryS activity [% at 30 μM]” value in series [3] is recorded as 82.9 ± 6.5%. The compound further gave a solubility (kinetic) at 10 s in series [4] of 2.95e-05 M (≈ 15.4 µg/mL).

Values taken from publication PMC10688702, “The indole motif is essential for the antitrypanosomal activity of N^5-substituted paullones” (PLOS ONE, 2023).
